Measurements: patent US20230398130A1, “METHODS AND COMPOSITIONS FOR DIFFERENTIATING STEM CELLS” (Massachusetts Institute of Technology, priority 2020, published 2023)

How the values were obtained:
ISC-enriched organoids = assay: Secondary (validation) screen, 384-well 2.5-D, ENR+CD 6 days, n=8 wells, vs ENR+CD+DMSO control: basal lysozyme secretion (LYZ.NS); format: cell-based, murine
[1] = test system: human small intestinal organoids; assay: Lysozyme secretion assay, stem cell-enriched human small intestinal organoids; format: cell-based; conditions: increasing KPT-330 concentrations, 6 days, three duodenal donors
Description: To extend the observations from the murine organoid system, Applicants sought to examine how XPO1 inhibition via KPT-330 may effect human small intestinal stem cells by utilizing a stem-cell enriched human small intestinal organoid model^46 (see Methods).
Human crypt isolation and organoid culture. Samples from adult human duodenum were collected for organoid culture in accordance with MGH IRB guidance. Human donor tissue was non-inflamed excess tissue collected during bulk surgical resection via MGH pathology. Crypts were isolated from bulk resections as follows. Bulk resections were cut into approximately 0.25 cm sections from epithelial surface, and washed in PBSO repeatedly by gently pipetting the fragments using a 10-ml pipette until the supernatant was clear. Fragments were rocked on ice with crypt isolation buffer (10 mM EDTA, 10 mM HEPES, 2% FCS in PBSO) for 30 min. After isolation buffer was removed, fragments were washed with cold PBSO by vigorous shaking to release the crypts, this process was repeated with reserved crypt-laden supernatant fractions 4-6 times or until supernatant was free of intact crypts (visual inspection). […]
Lysozyme secretion assay. […] The solution was replaced to a 96-well white microplate, and luminescent signals were measured by a microplate reader (infinite M200, Tecan).

[2] = test system: human small intestinal organoids; assay: Single-cell RNA-seq (Seq-Well S^3) of human small intestinal organoids with or without KPT-330; format: cell-based
Description: To more completely explore the changes induced by KPT-330 in this human organoid model, and any donor associated effects, Applicants again utilized scRNA-seq via Seq-Well S^3. Applicants performed a comparison between untreated and KPT-330-treated organoids from each donor over a 6-day differentiation, with each sample consisting of single cells from >1,000 organoids. The resulting dataset consists of 2,484 cells. UMI, percent mitochondrial, and detected gene distributions are similar across samples, within acceptable quality bounds (genes >500, UMI<30,000, percent mitochondrial <35) (FIG. 60A).
For both, organoids at each sampling were harvested from 4-6 pooled Matrigel domes, totaling >1,000 organoids per sample. Excess Matrigel was removed per previously described washing protocol, and organoids were resuspended in TrypLE at 37 C for 15 min, with vigorous homogenization through a p200 pipette tip every 5 min. After 15 min, the suspension was passed through a 30 uM cell strainer twice, and counted under brightfield microscopy with trypan blue staining for viable single cells. For human organoid scRNA-seq, antibody-based cell hashing was performed, with all samples pooled following labeling and three washes in FACS buffer to remove excess antibody. Each sample was manually counted to equally weight in cell pools, and then the pool was split and processed as four identical samples.
Antibody hashed arrays were demultiplex with doublets and negative-staining cells removed following default settings of the Seurat function HTODemux.
Applicants performed integrated analysis on a combined dataset of 2,484 cells, with quality metrics for gene number, captured UMIs, and percent mitochondrial genes reported in Supp. […] Dimensional reduction and clustering was performed following normalization in Seurat V3 via SCTransform^71. Applicants performed variable gene identification and dimensionality reduction utilizing the first 18 principal components based on the elbow method to identify 7 clusters using Louvain clustering (Resolution=0.5). […]

[3] = In vivo oral gavage of KPT-330 every other day for two weeks: body weight; set-up: species or system C57BL/6 wild-type mice
Description: Following a similar protocol as previously reported for SINE treatment in the context of cancer (Arango et al., 2017; Azmi et al., 2013; Hing et al., 2016; Zheng et al., 2014), KPT-330 was administered at a dose 10 mg/kg via oral gavage every other day over a two-week span in C57BL/6 wild-type mice, and body weight was monitored for any clear toxicity. […] Given animal weight loss on the standard chemotherapeutic dosage regimen, and additional evidence that sustained dosage of SINEs adversely impacts T cell populations (Tyler et al., 2017), Applicants sought to explore dosing regimens well below 10 mg/kg, to see if a pro-Paneth phenotype may exist below potential toxicities. […] Applicants tracked animal weight every other day, and at day 14 collected the proximal and distal thirds of the small intestine for histological quantification of Paneth, stem, and goblet populations (FIG. 26A). […] Paneth cells were counted within well preserved crypts, with at minimum 30 crypts quantified per animal (representative images FIG. 30C) and then averaged to get mean Paneth cells per crypt in distal and proximal thirds of the small intestine. […] Applicants additionally quantified the abundance of Olfm4+ stem cells as well as PAS+ goblet cells within the same animals to ascertain whether the effect of SINE treatment was restricted to the Paneth cell compartment (representative images FIG. 30D,E). […]

Structure (SMILES): O=C(/C=C\n1cnc(-c2cc(C(F)(F)F)cc(C(F)(F)F)c2)n1)NNc1cnccn1 [KPT-330]
- Z.LYZ.NS (ISC-enriched organoids; Dose 0.02 uM): −0.038
- repSSMD.LYZ.NS (ISC-enriched organoids; Dose 0.02 uM): −0.050
- Z.LYZ.NS (ISC-enriched organoids; Dose 0.04 uM): −0.318
- repSSMD.LYZ.NS (ISC-enriched organoids; Dose 0.04 uM): −0.506
- Z.LYZ.NS (ISC-enriched organoids; dose 0.08 uM): 1.132
- repSSMD.LYZ.NS (ISC-enriched organoids; dose 0.08 uM): 1.621
- increase in LYZ.NS (basal LYZ secretion) relative to ENR+CD control (ISC-enriched organoids; validated doses, secondary screen): 50-75%
- normalized LYZ secretion [1]: normalized LYZ secretion significantly increases with dose
- LYZ expression (scRNA-seq) ([2]; 160 nM KPT-330, 6 days, all donors): increased LYZ expression
- cell type composition (scRNA-seq) ([2]; 160 nM KPT-330, 6 days, pan-donor): decreases in cycling stem and progenitor populations, increases in quiescent progenitors and enterocytes
- XPO1 expression (scRNA-seq) ([2]; following KPT-330 treatment): compensatory increase in XPO1 expression
- body weight ([3]; 0.01, 0.05 or 0.2 mg/kg oral gavage every other day): no significant changes in animal weight at any dose
- body weight ([3]; 10 mg/kg oral gavage every other day): significant weight loss indicative of toxicity
